Assay results from ChEMBL document CHEMBL4715821, “Discovery of 4-ethoxy-7H-pyrrolo[2,3-d]pyrimidin-2-amines as potent, selective and orally bioavailable LRRK2 inhibitors” (Bioorg Med Chem Lett, 2018).

Target: Aurora kinase C (Homo sapiens) (UniProt Q9UQB9)
Experiment: Inhibition of wild-type human full length AURKC (M1 to S275 residues) expressed in bacterial expression system assessed as residual activity at 1 uM by Kinomescan method relative to control

Sequence of Aurora kinase C (Homo sapiens) (Q9UQB9 whole entry, the tested form may be a part): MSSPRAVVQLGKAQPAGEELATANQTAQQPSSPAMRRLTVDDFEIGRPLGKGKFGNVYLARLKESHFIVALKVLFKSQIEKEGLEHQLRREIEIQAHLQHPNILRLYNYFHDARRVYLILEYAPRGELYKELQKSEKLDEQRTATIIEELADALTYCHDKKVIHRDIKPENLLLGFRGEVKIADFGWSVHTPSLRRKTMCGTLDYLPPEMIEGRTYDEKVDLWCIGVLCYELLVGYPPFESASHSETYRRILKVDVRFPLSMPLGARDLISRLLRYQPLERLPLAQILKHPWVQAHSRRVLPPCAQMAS

## CCOc1nc(Nc2ccc(C(=O)N3CCOCC3)cc2OC)nc2[nH]ccc12
  Activity: 97.3%
